Biological target: T1, human GPR40 (Homo sapiens, UniProt O14842)
T1 construct: expressed in transfected cells
Experiment: Evaluation of human GPR40 agonist activity with increase in intracellular Ca2+ concentration as an index (FLIPR)
Format: cell-based
Details: test compound 1 μM; CHO(dhfr−) cells stably expressing human GPR40; 100% = 10 μM compound of Example 153, 0% = DMSO
Summary of the method: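 CHO(dhfr−) cells stably expressing full-length human GPR40 were loaded with Ca2+ probe for 1 h at room temperature, then given test compound at 1 μM final. Fluorescence was followed on FLIPR, with activity scaled to a reference agonist at 10 μM (100%) and DMSO (0%).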

T1 sequence (O14842 whole entry): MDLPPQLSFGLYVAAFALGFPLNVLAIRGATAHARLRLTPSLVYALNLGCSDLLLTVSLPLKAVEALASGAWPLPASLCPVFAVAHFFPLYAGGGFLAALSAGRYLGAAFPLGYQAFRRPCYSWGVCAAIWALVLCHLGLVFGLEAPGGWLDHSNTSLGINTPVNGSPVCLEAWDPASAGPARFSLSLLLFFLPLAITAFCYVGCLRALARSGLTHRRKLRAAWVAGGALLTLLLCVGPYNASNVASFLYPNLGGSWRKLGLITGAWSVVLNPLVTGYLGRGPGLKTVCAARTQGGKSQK

| Compound | activation at 1 µM |
| --- | --- |
| COc1ccc(C(=O)N(CC(C)(C)C)c2cccc(C)n2)c(N2CCC(C(C)Oc3cc(C(CC(=O)O)C4CC4)ccn3)CC2)c1 (stereo not shown) [Example 268, 3-cyclopropyl-3-(2-(1-(1-(2-((2,2-dimethylpropyl)(6-methylpyridin-2-yl)carbamoyl)-5-methoxyphenyl)piperidin-4-yl)ethoxy)pyridin-4-yl)propanoic acid] | 92% |
| Cc1cccc(N(CC(C)(C)C)C(=O)c2ccc(O)cc2N2CCC(COc3cc(C(CC(=O)O)C4CC4)ccn3)CC2)n1 (stereo not shown) [Example 259, 3-cyclopropyl-3-(2-((1-(2-((2,2-dimethylpropyl)(6-methylpyridin-2-yl)carbamoyl)-5-hydroxyphenyl)piperidin-4-yl)methoxy)pyridin-4-yl)propanoic acid] | 77% |
| COc1ccc(C(=O)N(CC(C)(C)C)c2cccc(C)n2)c(N2CCC(COc3cc(C(CC(=O)O)C4CC4)ccn3)CC2)c1F (stereo not shown) [Example 252, 3-cyclopropyl-3-(2-((1-(6-((2,2-dimethylpropyl)(6-methylpyridin-2-yl)carbamoyl)-2-fluoro-3-methoxyphenyl)piperidin-4-yl)methoxy)pyridin-4-yl)propanoic acid] | 87% |
| COc1ccc(C(=O)N(CC(C)(C)C)c2ccccn2)c(N2CC[C@@H](COc3cccc(C(CC(=O)O)C4CC4)c3)[C@@H](C)C2)c1 (stereo partly drawn) [Example 280, (3S)-cyclopropyl-3-(3-(((3R,4R)-1-(2-((2,2-dimethylpropyl) (pyridin-2-yl)carbamoyl)-5-methoxyphenyl)-3-methylpiperidin-4-yl)methoxy)phenyl)-propanoic acid] | 6% |
| COc1ccc(C(=O)N(CC(C)C)c2cccc(OC)n2)c(N2CCC(COc3cc(C(CC(=O)O)C4CC4)ccn3)CC2)c1 (stereo not shown) [Example 128, 3-cyclopropyl-3-(2-((1-(5-methoxy-2-((6-methoxypyridin-2-yl)(2-methylpropyl)carbamoyl)phenyl)piperidin-4-yl)methoxy)pyridin-4-yl)propanoic acid] | 103% |
| COc1cc(N2CCC(COc3cc(C(CC(=O)O)C4CC4)ccn3)CC2)c(C(=O)N(CC(C)(C)C)c2cccc(C)n2)cn1 (stereo not shown) [Example 255, 3-cyclopropyl-3-(2-((1-(5-((2,2-dimethylpropyl)(6-methylpyridin-2-yl)carbamoyl)-2-methoxypyridin-4-yl)piperidin-4-yl)methoxy)pyridin-4-yl)propanoic acid] | 103% |
| CCc1ccc(C(=O)N(C)c2ncco2)c(N2CCC(COc3cccc(C(CC(=O)O)C4CC4)c3)CC2)c1 (stereo not shown) [Example 57, 3-cyclopropyl-3-(3-((1-(5-ethyl-2-(methyl(1,3-oxazol-2-yl)carbamoyl)phenyl)piperidin-4-yl)methoxy)phenyl)propanoic acid] | 58% |
| Cc1cccc(N(CC(C)(C)C)C(=O)c2ccc(C(N)=O)cc2N2CCC(COc3cc(C(CC(=O)O)C4CC4)ccn3)CC2)n1 (stereo not shown) [Example 261, 3-(2-((1-(5-carbamoyl-2-((2,2-dimethylpropyl)(6-methylpyridin-2-yl)carbamoyl)phenyl)piperidin-4-yl)methoxy)pyridin-4-yl)-3-cyclopropylpropanoic acid] | 11% |
| CC(C)(C)CN(C(=O)c1ccc(Cl)nc1N1CCC(COc2cccc(C(CC(=O)O)C3CC3)c2)CC1)c1ccccn1 (stereo not shown) [Example 59, 3-(3-((1-(6-chloro-3-((2,2-dimethylpropyl)(pyridin-2-yl)carbamoyl)pyridin-2-yl)piperidin-4-yl)methoxy)phenyl)-3-cyclopropylpropanoic acid] | 73% |
| CCc1ccc(C(=O)N(CC(C)(C)C)c2cccc(C)n2)c(N2CCC(COc3cc(C(CC(=O)O)C4CC4)ccn3)CC2)c1 (stereo not shown) [Example 109, 3-cyclopropyl-3-(2-((1-(2-((2,2-dimethylpropyl)(6-methylpyridin-2-yl)carbamoyl)-5-ethylphenyl)piperidin-4-yl)methoxy)pyridin-4-yl)propanoic acid] | 90% |
| COc1ccc(C(=O)N(CC(C)(C)C)c2ncccn2)c(N2CCC(COc3cc(C(CC(=O)O)C4CC4)c(F)cn3)CC2)c1 (stereo not shown) [Example 273, 3-cyclopropyl-3-(2-((1-(2-((2-dimethylpropyl)-(pyrimidin-2-yl)-carbamoyl)-5-methoxy-phenyl)piperidin-4-yl)-methoxy)-5-fluoropyridin-4-yl)propanoic acid] | 101% |
| COc1ccc(C(=O)N(CC(C)(C)C)c2cccc(C)n2)c(N2CCC(COc3cccc(C(C)(C)CC(=O)O)c3)CC2)c1 [Example 277, 3-(3-((1-(2-((2,2-dimethylpropyl) (6-methylpyridin-2-yl)carbamoyl)-5-methoxyphenyl)piperidin-4-yl)methoxy)phenyl)-3-methylbutanoic acid] | 110% |
| CCc1ccc(C(=O)N(CC(F)(F)C(F)(F)F)C(C)C)c(N2CCC(COc3cccc(C(CC(=O)O)C4CC4)c3)CC2)c1 (stereo not shown) [Example 54, 3-cyclopropyl-3-(3-((1-(5-ethyl-2-((2,2,3,3,3-pentafluoropropyl)(propan-2-yl)carbamoyl)phenyl)piperidin-4-yl)methoxy)phenyl)propanoic acid] | 89% |

Continued, values first:

| activation at 1 µM | Compound |
| --- | --- |
| 98% | COc1ccc(C(=O)N(CC(C)(C)C)c2cc(C)ncn2)c(N2CCC(COc3cc(C(CC(=O)O)C4CC4)ccn3)CC2)c1 (stereo not shown) [Example 230, 3-cyclopropyl-3-(2-((1-(2-((2,2-dimethylpropyl) (6-methylpyrimidin-4-yl)carbamoyl)-5-methoxyphenyl)piperidin-4-yl)methoxy)pyridin-4-yl)propanoic acid] |
| 103% | COc1ccc(C(=O)N(CC(C)(C)C)c2cnccn2)c(N2CCC(COc3cc(C(CC(=O)O)C4CC4)ccn3)CC2)c1 (stereo not shown) [Example 178, 3-cyclopropyl-3-(2-((1-(2-((2,2-dimethylpropyl)(pyrazin-2-yl)carbamoyl)-5-methoxyphenyl)piperidin-4-yl)methoxy)pyridin-4-yl)propanoic acid] |
| 98% | COc1ccc(C(=O)N(CC2CCCCC2)c2ccccn2)c(N2CCC(COc3cc(C(CC(=O)O)C4CC4)ccn3)CC2)c1 (stereo not shown) [Example 195, 3-(2-((1-(2-((cyclohexylmethyl)(pyridin-2-yl)carbamoyl)-5-methoxyphenyl)piperidin-4-yl)methoxy)pyridin-4-yl)-3-cyclopropylpropanoic acid] |
| 85% | COc1ccc(C(=O)N(CC(C)(C)C)C2CCCN(CC(F)(F)F)C2)c(N2CCC(COc3cc(C(CC(=O)O)C4CC4)ccn3)CC2)c1 (stereo not shown) [Example 233, 3-cyclopropyl-3-(2-((1-(2-((2,2-dimethylpropyl) (1-(2,2,2-trifluoroethyl)piperidin-3-yl)carbamoyl)-5-methoxyphenyl)piperidin-4-yl)methoxy)pyridin-4-yl)propanoic acid] |
| 106% | COc1ccc(C(=O)N(CC(F)(F)C(F)(F)F)c2nccc(C)n2)c(N2CCC(COc3cc(C(CC(=O)O)C4CC4)ccn3)CC2)c1 (stereo not shown) [Example 171, 3-cyclopropyl-3-(2-((1-(5-methoxy-2-((4-methylpyrimidin-2-yl)(2,2,3,3,3-pentafluoropropyl)carbamoyl)phenyl)piperidin-4-yl)methoxy)pyridin-4-yl)propanoic acid] |
| 52% | COc1ccc(C(=O)N(CC(C)(C)O)c2ccccn2)c(N2CCC(COc3cc(C(CC(=O)O)C4CC4)ccn3)CC2)c1 (stereo not shown) [Example 119, 3-cyclopropyl-3-(2-((1-(2-((2-hydroxy-2-methylpropyl)(pyridin-2-yl)carbamoyl)-5-methoxyphenyl)piperidin-4-yl)methoxy)pyridin-4-yl)propanoic acid] |
| 39% | COc1ccc(C(=O)NC2CCN(CC(F)(F)F)CC2)c(N2CCC(COc3cc(C(CC(=O)O)C4CC4)ccn3)CC2)c1 (stereo not shown) [Example 193, 3-cyclopropyl-3-(2-((1-(5-methoxy-2-((1-(2,2,2-trifluoroethyl)piperidin-4-yl)carbamoyl)phenyl)piperidin-4-yl)methoxy)pyridin-4-yl)propanoic acid] |
| 104% | COc1ccc(C(=O)N(CC(F)(F)F)c2cc(C)ccn2)c(N2CCC(COc3cc(C(CC(=O)O)C4CC4)ccn3)CC2)c1 (stereo not shown) [Example 148, 3-cyclopropyl-3-(2-((1-(5-methoxy-2-((4-methylpyridin-2-yl)(2,2,2-trifluoroethyl)carbamoyl)phenyl)piperidin-4-yl)methoxy)pyridin-4-yl)propanoic acid] |
| 104% | COc1ccc(C(=O)N(CC(F)(F)C(F)(F)F)c2ncccn2)c(N2CCC(COc3cc(C(CC(=O)O)C4CC4)ccn3)CC2)c1 (stereo not shown) [Example 170, 3-cyclopropyl-3-(2-((1-(5-methoxy-2-((2,2,3,3,3-pentafluoropropyl)(pyrimidin-2-yl)carbamoyl)phenyl)piperidin-4-yl)methoxy)pyridin-4-yl)propanoic acid] |
| 99% | COc1ccc(C(=O)N(CC2CC(F)(F)C2)c2ccccn2)c(N2CCC(COc3cc(C(CC(=O)O)C4CC4)ccn3)CC2)c1 (stereo not shown) [Example 162, 3-cyclopropyl-3-(2-((1-(2-(((3,3-difluorocyclobutyl)methyl)(pyridin-2-yl)carbamoyl)-5-methoxyphenyl)piperidin-4-yl)methoxy)pyridin-4-yl)propanoic acid] |
| 90% | COc1ccc(C(=O)N(CC(F)(F)F)c2cncc(C)c2)c(N2CCC(COc3cc(C(CC(=O)O)C4CC4)ccn3)CC2)c1 (stereo not shown) [Example 175, 3-cyclopropyl-3-(2-((1-(5-methoxy-2-((5-methylpyridin-3-yl)(2,2,2-trifluoroethyl)carbamoyl)phenyl)piperidin-4-yl)methoxy)pyridin-4-yl)propanoic acid] |
| 101% | CCC(C)(C)CN(C(=O)c1ccc(OC)cc1N1CCC(COc2cc(C(CC(=O)O)C3CC3)ccn2)CC1)c1ccccn1 (stereo not shown) [Example 149, 3-cyclopropyl-3-(2-((1-(2-((2,2-dimethylbutyl)(pyridin-2-yl)carbamoyl)-5-methoxyphenyl)piperidin-4-yl)methoxy)pyridin-4-yl)propanoic acid] |

Reference: patent US9776962B2, “Aromatic compounds with GPR40 agonistic activity” (TAKEDA PHARMACEUTICAL COMPANY LIMITED, priority 2013, dated 2017)
